Reference: ChEMBL document CHEMBL1152029 (1997)
Activity calls are given as the source filed them. No cut-off for these calls is given here.

Legend:
Mus musculus [1] = experiment: The percent increase in life span was measured using CD2F1 male mice at 239 mg/kg dose; assay type: functional
Mus musculus [2] = experiment: Mean survival time of compound was measured using CD2F1 male mice in group of ten at 239 mg/kg dose on day 30; assay type: functional
Mus musculus [3] = experiment: %Survival of compound was measured using CD2F1 male mice in group of ten at 239 mg/kg dose on day 30; assay type: functional; conditions: 720 h
Mus musculus [4] = experiment: Mean survival time of treated group(T) and Mean survival time of control group(C) was measured using CD2F1 male mice at 239 mg/kg dose; assay type: functional
V79 [5] = experiment: The in vitro radioprotective effect measured against Chinese hamster V-79 cells at concentration of 0.1 mM; assay type: functional, Cricetulus griseus
V79 [6] = experiment: The cytotoxicity in vitro against Chinese hamster V-79 cells at concentration of 0.5 mM; assay type: functional; conditions: Cricetulus griseus, read-out: Survival
V79 [7] = experiment: The cytotoxicity in vitro against Chinese hamster V-79 cells at concentration of 1 mM; assay type: functional; conditions: Cricetulus griseus, read-out: Survival
V79 [8] = experiment: The cytotoxicity in vitro against Chinese hamster V-79 cells at concentration of 0.1 mM; assay type: functional; conditions: Cricetulus griseus, read-out: Survival
Mus musculus [9] = experiment: The percent increase in life span was measured using CD2F1 male mice at 400 mg/kg dose; assay type: functional
Mus musculus [10] = experiment: Mean survival time of compound was measured using CD2F1 male mice in group of ten at 400 mg/kg dose on day 30; assay type: functional
Mus musculus [11] = experiment: %Survival of compound was measured using CD2F1 male mice in group of ten at 400 mg/kg dose on day 30; assay type: functional; conditions: 720 h
V79 [12] = experiment: The cytotoxicity in vitro against Chinese hamster V-79 cells at concentration of 0.5 mM; NA= Not active; assay type: functional, cell-based; conditions: Cricetulus griseus
V79 [13] = experiment: The cytotoxicity in vitro against Chinese hamster V-79 cells at concentration of 0.1 mM; NA= Not active; assay type: functional, cell-based; conditions: Cricetulus griseus
[14] = Mean survival time of treated group(T) and Mean survival time of control group(C) was measured using CD2F1 male mice at 400 mg/kg dose; assay type: functional
Mus musculus [15] = experiment: The percent increase in life span was measured using CD2F1 male mice at 469 mg/kg dose; assay type: functional
Mus musculus [16] = experiment: Mean survival time of compound was measured using CD2F1 male mice in group of ten at 469 mg/kg dose on day 30; assay type: functional
Mus musculus [17] = experiment: %Survival of compound was measured using CD2F1 male mice in group of ten at 469 mg/kg dose on day 30; assay type: functional; conditions: 720 h
[18] = Mean survival time of treated group(T) and Mean survival time of control group(C) was measured using CD2F1 male mice at 469 mg/kg dose; assay type: functional

Row | Structure (SMILES) | ILS at 239 mg/kg (Mus musculus [1]) | MST (Mus musculus [2]) | survival at 239 mg/kg (Mus musculus [3]) | Ratio (Mus musculus [4]) | DMF (V79 [5]) | viability at 500 µM (V79 [6]) | viability at 1000 µM (V79 [7]) | viability at 100 µM (V79 [8]) | ILS at 400 mg/kg (Mus musculus [9]) | MST (Mus musculus [10]) | survival at 400 mg/kg (Mus musculus [11]) | Survival (V79 [12]) | Survival (V79 [13]) | Ratio [14] | ILS at 469 mg/kg (Mus musculus [15]) | MST (Mus musculus [16]) | survival at 469 mg/kg (Mus musculus [17]) | Ratio [18]
1 | NCCCNCCSP(=O)(O)O [AMIFOSTINE] | 130% | 27 | 80% | 2.63 | 1.4 | 2% | 0% | 100% |  |  |  |  |  |  |  |  |  | 
2 | CNCCCNCCCSP(=O)(Oc1ccc(Cl)cc1)SCCCNCCCNC |  |  |  |  | 1.65 |  | 94% |  | 73% | 23 | 50% | inactive | inactive | 2.26 |  |  |  | 
3 | CNCCCNCCCSP(=O)(O)O |  |  |  |  | 1.5 | 99% | 90% | 93% |  |  |  |  |  |  | 18% | 20 | 60% | 1.94
